Read-outs that look alike come from different tables or passages of the source.
Tests used:
K-562 cancer cell line = assay: Cell proliferation MTT assay, K-562; assay type: cell-based, human
Description: (§1) The MTT assay, a colorimetric method, quantifies viable cells to evaluate cytotoxic effects on LNCaP, MCF-7, HepG-2, and K-562 cell lines. It measures the conversion of MTT to insoluble formazan by mitochondrial succinate dehydrogenase in active cells, reflecting cell viability. Compounds were dissolved in saline and DMSO (≤0.1%) and tested at 0.1, 1, and 10 μM concentrations, following Mosmann’s method.
(§2) Suspension cells were centrifuged, and adherent cells were trypsinized then diluted to 5 × 10⁴ cells/mL in RPMI 1640 with 10% fetal bovine serum. Subsequently, 5 × 10^3 cells in 100 μL were plated in 96-well plates and incubated for attachment. After adding compounds, cells were incubated for 24 h at 37 °C and 3% CO2. MTT reagent was introduced, and cells were monitored for formazan presence under a microscope.
(§3) Upon observing purple precipitate, detergent reagent was added, and plates were kept in the dark for 4 h. Absorbance was measured at 540 nm using a BioTek reader (Agilent, Santa Clara, CA, USA). Results, indicating percent inhibition, were calculated using the following formula:(3) I (%)=100−Abs540 nmsample /Abs540 nmcontrol ×100
(§4) IC50 values were determined as a measure of compound efficacy on cancer cell proliferation.

RD cancer cell line = assay: Cell proliferation resazurin assay, RD; assay type: cell-based, human; settings: 24 h incubation
Description: (§5) The proliferation of HeLa, BxPC-3, RD, and MDCK cells was assessed using resazurin. Triplicate cultures of 1 × 10^4 cells in 100 μL of medium were incubated at 37 °C, 3% CO2, in 96-well plates. Compounds were dissolved in DMSO to form 1 × 10⁻^2 M solutions, then diluted with media and added to wells for a 24 h incubation. Following this, 20 μL of resazurin solution was added and incubated for 4 h. Absorbance was measured at 570 nm and 600 nm.
(§6) Percentage inhibition was calculated as follows:(2) I (%)=100−Abs570 nmsample−Abs600 nmsample /[…]−Abs600 nmcontrol ×100
(§7) The formula accounts for absorbance differences at 570 nm and 600 nm to determine cell viability.
(§8) The half maximal inhibitory concentration (IC50) indicated the effectiveness of the compounds on cell lines, as defined by FDA guidelines as the concentration needed for 50% inhibition in vitro. Toxicity was assessed via the median lethal concentration (LC50), the concentration causing death in 50% of juvenile daphnids, calculated using a dose–response equation via least squares fitting. All data are presented as mean ± standard deviation (SD). Statistical analyses were conducted with specialized software.

HeLa cancer cell line = assay: Cell proliferation resazurin assay, HeLa; assay type: cell-based, human; settings: 24 h incubation
Description: as §5, §6, §7, §8

BxPC-3 cancer cell line = assay: Cell proliferation resazurin assay, BxPC-3; assay type: cell-based, human; settings: BxPC-3, 24 h incubation
Description: as §5, §6, §7, §8

MCF-7 cancer cell line = assay: Cell proliferation MTT assay, MCF-7; assay type: cell-based, human
Description: as §1, §2, §3, §4

HL-60 cancer cell line = assay: Antiproliferative activity, HL-60; assay type: cell-based, human
HepG-2 cancer cell line = assay: Cell proliferation MTT assay, HepG-2; assay type: cell-based, human
Description: as §1, §2, §3, §4

MDCK normal cell line = assay: Cell proliferation resazurin assay, MDCK normal cell line; assay type: cell-based, canine; settings: 24 h incubation
Description: as §5, §6, §7, §8

LNCaP cancer cell line = assay: Cell proliferation MTT assay, LNCaP; assay type: cell-based, human; settings: 24 h incubation
Description: as §1, §2, §3, §4

Daphnia magna = assay: in vivo; settings: pH 7
Description: Toxicity testing for certain substances was conducted using Daphnia magna, following ISO 6341:2012 guidelines. Daphnia magna were cultured parthenogenetically at the Institute of Zoology and fed Chlorella vulgaris grown aseptically. The algal medium included CaCl2, NaHCO3, KCl, and MgSO4·7H2O, with pH adjusted to 7.0 and O2 ≥ 6.00 mg/L. Juvenile daphnids were cultured in 24-well plates, each holding 10 daphnids in 1000 μL of each compound dilution. The bioassay tested concentrations from 0.1 to 100 μM to determine LC50, using doxorubicin as the positive control and a 0.1% DMSO solution as the negative control. The daphnids were incubated at 22 ± 2 °C with a 16 h/8 h light/dark cycle.
The experiment was conducted in triplicate to ensure accuracy.
as §8

[1] = test system: HeLa, RD, and BxPC-3 cancer cell lines; assay: Antiproliferative activity, summary over HeLa, RD and BxPC-3 cell lines; assay type: cell-based; settings: Homo sapiens; range over the three cancer cell lines; read-out: IC50 range against HeLa, RD, and BxPC-3 cell lines
Description: as §5, §6, §7, §8

[2] = Homo sapiens, K562, K-562, 24 h incubation
[3] = Homo sapiens, MCF7, MCF-7, 24 h incubation
[4] = Homo sapiens, HepG2, HepG-2, 24 h incubation
[5] = other: immersion in compound dilution

| Structure (SMILES) | IC50 (RD cancer cell line) [nM] | IC50 (HeLa cancer cell line) [nM] | IC50 (BxPC-3 cancer cell line) [nM] | IC50 (MDCK normal cell line) [nM] | IC50 (K-562 cancer cell line; [2]) [nM] | IC50 (RD cancer cell line; Homo sapiens) [nM] | IC50 (HeLa cancer cell line; Homo sapiens) [nM] | IC50 (BxPC-3 cancer cell line; Homo sapiens) [nM] | IC50 (MCF-7 cancer cell line; [3]) [nM] | IC50 (HL-60 cancer cell line; Homo sapiens) [nM] | IC50 (HepG-2 cancer cell line; [4]) [nM] | IC50 (MDCK normal cell line; Canis lupus familiaris) [nM] | IC50 (LNCaP cancer cell line; Homo sapiens) [nM] | LC50 at 24 h (Daphnia magna; [5]) [nM] | further results |
| --- | --- | --- | --- | --- | --- | --- | --- | --- | --- | --- | --- | --- | --- | --- | --- |
| COc1ccccc1NC(=NN=Cc1ccccn1)[S][Cu][Cl] [C1, [Cu(L^1)Cl]] | 100 ± 10 | 800 ± 40 | 100 ± 20 | 300 ± 20 |  |  |  |  |  |  |  |  |  |  | IC50 (K-562 cancer cell line; K-562, 24 h incubation): 64000 ± 1400 nM; IC50 (MCF-7 cancer cell line; MCF-7, 24 h incubation): 100000 ± 4200 nM; IC50 (HL-60 cancer cell line): 35000 ± 2100 nM; IC50 (HepG-2 cancer cell line; HepG-2, 24 h incubation): 68000 ± 4200 nM; IC50 (LNCaP cancer cell line): 45000 ± 2100 nM |
| COc1ccccc1NC(=NN=Cc1ccccn1)[S][Cu][O][N+](=O)[O-] [C2, [Cu(L^1)NO3]] | 100 ± 10 | 800 ± 30 | 100 ± 10 | 600 ± 30 |  |  |  |  |  |  |  |  |  |  | IC50 (K-562 cancer cell line; K-562, 24 h incubation): 500 ± 10 nM; IC50 (MCF-7 cancer cell line; MCF-7, 24 h incubation): 100 ± 50 nM; IC50 (HL-60 cancer cell line): 30 ± 1 nM; IC50 (HepG-2 cancer cell line; HepG-2, 24 h incubation): 400 ± 50 nM; IC50 (LNCaP cancer cell line): 800 ± 30 nM |
| COc1cccc(NC(=NN=Cc2ccccn2)[S][Cu][O][N+](=O)[O-])c1 [C4, [Cu(L^2)NO3]] | 100 ± 60 | 100 ± 10 | 100 ± 50 | 1300 ± 400 |  |  |  |  |  |  |  |  |  |  |  |
| COc1ccc(NC(=NN=Cc2ccccn2)[S][Cu][Cl])cc1 [C5, [Cu(L^3)Cl]] | 19700 ± 2400 | 26100 ± 1200 | 9400 ± 1200 | 26600 ± 2400 |  |  |  |  |  |  |  |  |  |  |  |
| COc1ccc(NC(=NN=Cc2ccccn2)[S][Cu][O][N+](=O)[O-])cc1 [C6, [Cu(L^3)NO3]] | 1200 ± 30 | 1100 ± 50 | 100 ± 40 | 2100 ± 1500 |  |  |  |  |  |  |  |  |  |  | IC50 (K-562 cancer cell line; K-562, 24 h incubation): 30 ± 2 nM; IC50 (MCF-7 cancer cell line; MCF-7, 24 h incubation): 600 ± 30 nM; IC50 (HL-60 cancer cell line): 30 ± 6 nM; IC50 (HepG-2 cancer cell line; HepG-2, 24 h incubation): 600 ± 30 nM; IC50 (LNCaP cancer cell line): 300 ± 40 nM |
| COc1cccc(NC(=NN=C(C)c2ccccn2)[S][Cu][O][N+](=O)[O-])c1 [C7, [Cu(L^4)NO3]] | 500 ± 60 | 100 ± 40 | 200 ± 50 | 900 ± 40 |  |  |  |  |  |  |  |  |  |  |  |
| COc1cccc(NC(=NN=C(C)c2ccccn2)[S][Cu][Cl])c1 [C8, [Cu(L^4)Cl]] | 200 ± 40 | 100 ± 30 | 100 ± 70 | 1100 ± 60 |  |  |  |  |  |  |  |  |  |  |  |
| [NH2][Pt]([NH2])([Cl])[Cl] [CDDP, cisplatin, reference compound] | 4600 ± 600 | 30900 ± 1200 | 11200 ± 1300 | 1500 ± 300 |  |  |  |  |  |  |  |  |  |  |  |
| COc1cccc2c1C(=O)c1c(O)c3c(c(O)c1C2=O)C[C@@](O)(C(=O)CO)C[C@@H]3O[C@H]1C[C@H](N)[C@H](O)[C@H](C)O1 [DOXO, doxorubicin, reference compound] |  |  |  |  | 400 ± 30 | 16200 ± 1400 | 6200 ± 500 | 6000 ± 100 | 14000 ± 1500 | 1000 ± 300 | 2800 ± 1100 | 10800 ± 1200 | 1100 ± 20 |  | LC50 at 24 h (Daphnia magna): 3600 nM |
| COc1ccccc1NC(=S)N/N=C/c1ccccn1 [HL^1, N-(2-Methoxyphenyl)-2-[(pyridin-2-yl)methylidene] hydrazine-1-carbothioamide] |  |  |  |  | 10000 ± 1200 | 100000 ± 4200 | 81200 ± 5300 | 100 ± 50 | 10000 ± 1200 | 40 ± 6 | 800 ± 40 | 10100 ± 1200 | 100000 ± 4900 | 15000 |  |
| COc1cccc(NC(=S)N/N=C/c2ccccn2)c1 [HL^2, N-(3-Methoxyphenyl)-2-[(pyridin-2-yl)methylidene] hydrazine-1-carbothioamide] |  |  |  |  | 900 ± 50 | 200 ± 30 | 100 ± 10 | 100 ± 40 | 3500 ± 500 | 10 ± 4 | 600 ± 60 | 400 ± 60 | 900 ± 50 | 13000 | IC50 [1]: 100 to 200 nM |
| COc1ccc(NC(=S)N/N=C/c2ccccn2)cc1 [HL^3, N-(4-Methoxyphenyl)-2-[(pyridin-2-yl)methylidene] hydrazine-1-carbothioamide] |  |  |  |  | 10000 ± 1600 | 500 ± 40 | 100000 ± 5900 | 2100 ± 200 | 100000 ± 4600 | 10 ± 1 | 52000 ± 10 | 100000 ± 4600 | 100000 ± 4200 | 35000 | IC50 [1]: 500 to 100000 nM |
| COc1cccc(NC(=S)N/N=C(\C)c2ccccn2)c1 [HL^4, N-(3-Methoxyphenyl)-2-[1-(pyridin-2-yl)ethylidene] hydrazine-1-carbothioamide] |  |  |  |  | 16000 ± 2200 | 11600 ± 500 | 5800 ± 1200 | 100 ± 30 | 55000 ± 2100 | 60 ± 4 | 3100 ± 300 | 14900 ± 1600 | 100000 ± 3100 | 14000 | IC50 [1]: 100 to 11000 nM |
| COc1cccc(NC(=S)N/N=C(/c2ccccc2)c2ccccn2)c1 [HL^5, N-(3-Methoxyphenyl)-2-[phenyl (pyridin-2-yl)methylidene] hydrazine-1-carbothioamide] |  |  |  |  | 100 ± 10 | 500 ± 60 | 100000 ± 4200 | 3200 ± 300 | 5200 ± 600 | 20 ± 6 | 300 ± 10 | 100000 ± 3800 | 8100 ± 1200 | 45000 | IC50 [1]: 500 to 100000 nM |

— publication PMC11676775, “Novel Copper(II) Coordination Compounds Containing Pyridine Derivatives of N^4-Methoxyphenyl-Thiosemicarbazones with Selective Anticancer Activity” (Molecules, 2024)
